Assay results: patent US5587509A, “Caged caboxyl compounds and use thereof” (Cornell Research Foundation, Inc., priority 1995, dated 1996)
Where two headings read alike, the source gives them in different places.

Legend:
[1] = test system: glycine receptor channels; assay: whole-cell current recording, cell-flow with mixer (effect of the caged compound or photoproduct on glycine receptor channels); type: cell-based, mouse; details: for effect on glycine receptors or their response to glycine: mouse cerebral cortical neurons, pH 7.1
Procedure: (§1) Whole-cell current recording was performed as follows. The preparation of embryonic mouse cortical cells was as described by Geetha et al. (Biochemistry 31:5488-5499 (1992)). The extracellular recording buffer was 145 mM NaCl, 1.8 MM MgCl2, 1 mM CaCl2 and 10 mM Hepes (pH 7.4) and the intracellular buffer was 145 mM CsCl, 1 mM CaCl2, 10 mM EGTA [ethyleneglycol-bis-(beta-aminoethyl ether) N,N,N',N'-tetraacetic acid] and 10 mM Hepes (pH 7.2) The flow method used to equilibrate receptors on the surface of a single cell with ligands within 10 ms has been described by Udgaonkar et al (Proc. Natl. Acad. Sci. USA, 84:8758-8762 (1987)). The whole-cell current responses were determined in mouse cortical neurons, pH […], room temperature (22° C.). Caged glycine solutions at pH 4.0 in extracellular buffer but containing only 5 mM Hepes were mixed in 1:1 proportions with extracellular recording buffer containing 20 mM Hepes at pH 7.4 using a low volume T-tube mixer before the solutions entered the U-tube that delivered the solution stream at pH 7.1 to the cell at a linear flow rate of 0.5 cm s^-1. The whole-cell current due to opening of glycine receptor channels was recorded using the technique of Hamill et al. (Pflugers Arch, 391:85-100 (1981)). All other details of the cell-flow technique, and the combination of the cell-flow technique with the laser-pulse photolysis technique in which the whole-cell current is measured after photolysis of caged neurotransmitter, were as described by Matsubara et al (Biochemistry, 31:5507-5514 (1992)). Hydrolysis of the caged glycine before it was applied to a cell was prevented by the mixer strategy.
Specifically, the caged glycine solution with and without free glycine at pH 4.0 was rapidly mixed with extracellular buffer to produce a solution of pH 7.1 before flowing it over the cell. A control solution of 85 μM free glycine (170 μM glycine in extracellular buffer mixed with pH 4 buffer used to stabilize the ester) is shown by the solid trace in FIG. 3. […] Identical current responses were obtained when 170 μM glycine in pH 7.4 buffer was mixed with pH 4 buffer when the solutions were altemately applied from the two different supply lines of the mixer (data not shown).

[2] = test system: glycine receptor channels; assay: whole-cell current after laser-pulse photolysis of caged glycine (cell-flow laser-pulse photolysis); type: cell-based, mouse; details: for rate of rising phase of whole-cell current: 700 μM caged compound, pH 7.1
Procedure: (§2) To evaluate the photolysis characteristics of the 2-methoxy-5-nitro glycine ester of Example I, laser pulse photolysis was performed and the results thereof are shown in FIG. 2 by the rapid absorbance jump produced by the photolysis of the ester. The light source used to initiate the photolysis reaction was a Lumonics TE861M excimer laser. The lasing medium was either 2% N2 in helium, which produced a primary energy of 6 mJ at 337 nm with a 4 ns pulse width, or a XeCl mix that produced 70 rnJ at 308 nm in 6 ns pulses. For cell photolysis, the 337 nm light was delivered to the microscope stage for use in whole-cell recording measurements with a 300 μm core optical fiber (FiberGuide Industries); 10% of the primary energy was typically coupled through the fiber to the cell preparation. Rapid absorbance changes of caged compound solutions were measured with a transient absorbance spectrophotometer in which 308 nm light from the primary output of the laser was focussed into a 2×2 mm quartz cuvet and the absorbance changes produced were monitored at right angles to the laser beam with a single beam transient spectrophotometer whose signal transfer parameters effectively produced 500 kHz filtering of the rapid absorbance jump. The photocurrent was amplified with a Thorn EMI model Al preamplifier, which also acted as a low pass filter with cutoff dependent on the amplification selected; the cutoff frequencies were between 50 KHz and 50 MHz. The rapid absorbance jump produced in the caged ester solution by single laser flashes could be digitized at up to 2 MHz with a digital oscilloscope and in each case the preamplifier filtering was matched to the digitization rate of the data collection. Measurements of the pulsed UV light energy for quantum yield determinations were made with a Gentec ED200 calibrated thermopile.
as §1, with “strategy. […]” for “strategy.”

[3] = laser-pulse photolysis, transient absorbance (photolysis speed and product quantum yield); type: physicochemical
Procedure: as §2
Absorbance measurements of the fast jump were made over the range 350 to 450 nm and the resulting profile matched the absorbance spectrum of the expected 2-methoxy-5-nitrophenol. Measurements of triplet quenching in the reaction of 2-methoxy-5-nitrophenyl acetate by Kuzmic et al. (supra) indicate that the lifetime of the photohydrolysis reaction is 0.15 μs. The maximum time resolution of the transient absorbance measurements in our study is 0.5 μs.
The product quantum yield from photolysis of the caged glycine was estimated by comparison to the photolysis of 2-methoxy-5-nitrophenyl acetate, which was used as an actinometric standard. A quantum yield of 0.22 was found for a 1 mM solution of 2-methoxy-5-nitrophenyl acetate in 100 mM phosphate buffer at pH 7.0 that also contained 20% acetonitrile to substituted for caged glycine.

[4] = spontaneous hydrolysis in buffer followed spectrophotometrically; type: physicochemical
Procedure: A 1.1 mM solution of the caged glycine of Example I was prepared in extracellular recording buffer at pH 7.1. […] The caged glycine ester was rapidly dissolved in buffers to produce approximately 800 μM solutions of the caged compound and immediately transferred to a 2×2 cuvette in a Hewlett Packard model 8452A diode array spectrophotometer set up to collect spectra at timed intervals. The initial rates of the hydrolysis reaction were obtained from absorbance measurements at 310, 360 and 384 nm after subtraction of the absorbance of the completely hydrolyzed solution. The spectra of the fully hydrolyzed solutions were identical in all cases to reference spectra of 2-methoxy-5-nitrophenol at the different pH values. The upper trace at 310 nm represents the spectrum of the compound before hydrolysis. The lower trace at 310 nm corresponds to the fully hydrolyzed material and matches the spectrum of 2-methoxy-5-nitrophenol at pH 7.0. The spectra were acquired at 0, 1, 2, 3, 4, 6, 8, 11 and 60 min after the initial rapid dissolution in buffer. All measurements were performed at room temperature (22°-24° C.).

[5] = cited from earlier work
acetylcholine receptor = details: Milburn et al.; cited from earlier work

COc1ccc([N+](=O)[O-])cc1OC(=O)CN [caged glycine, 2-Methoxy-5-nitrophenyl glycine ester]
effect of caged glycine on current response to free glycine ([1]; 170 μM glycine mixed 1:1 with 1.1 mM caged glycine ester in pH 4 buffer, versus control 85 μM free glycine): An identical response was produced
activation of whole cell current by caged glycine ([1]; caged glycine at pH 4.0 mixed with external buffer, final pH 7.1, -40 mV, 22° C., mouse cortical neurons): did not activate any whole cell current
effect on glycine receptors or their response to glycine [1]: Neither the caged compound nor the 2-methoxy-5-nitrophenol photolysis product affected the glycine receptors or modified their response to glycine
inhibition or activation by caged glycine ([1]; mouse cortical neurons, pH 7.1, -40 mV): no observable inhibition or activation
time thawed pH 4 solution could be used without detectable glycine currents in the preincubation baseline ([2]; frozen aliquots of freshly prepared caged glycine pH 4 solution, thawed before application with the mixer): up to 20 min
opening of glycine receptor channels on irradiation ([2]; laser pulse at 337 nm, mouse cerebral cortical neurons equilibrated with caged glycine): glycine receptor channels were opened
rate of rising phase of whole-cell current ([2]; lowest trace, 10 μm (so in the source) glycine released by photolysis): 42 s⁻¹
rate of rising phase of whole-cell current ([2]; middle trace, 18 μM glycine released by photolysis): 40 s⁻¹
rate of rising phase of whole-cell current ([2]; upper trace, 35 μM free glycine released by photolysis): 54 s⁻¹
speed of absorbance jump on photolysis with 337 nm light ([3]; 337 nm versus 308 nm light, excimer laser): as fast as the one induced by 308 nm light
product quantum yield from photolysis ([3]; caged glycine, estimated by comparison to 2-methoxy-5-nitrophenyl acetate as actinometric standard): 0.2
time within which caged glycine is photolyzed / converted to products ([3]; laser pulse, absorbance change at 380 nm, b60: 308 or 337 nm): ≤ 3 μs
half-life ([4]; buffer, pH 4, pH 4.0, read-out: time constant τ for hydrolysis (converted)): ~3 h
half-life ([4]; hepes buffer, pH 7.1, pH 7.1 (neutral pH, Hepes buffered solution), room temperature (22-24° C.), absorbance at 310 nm, read-out: time constant of spontaneous hydrolysis): 0.102 h

O=C(O)CNC(C(=O)O)c1ccccc1[N+](=O)[O-] (stereo not shown) [N-(.varies.-carboxy-2-nitrobenzyl)glycine]
product quantum yield ([5]; Billington et al.): 0.02
photolysis time constant τ ([5]; pH 7.5, Billington et al.): 1.6 ms

C[N+](C)(C)CCOC(=O)NC(C(=O)O)c1ccccc1[N+](=O)[O-] (stereo not shown) [caged carbamoylcholine]
time to liberate carbamoylcholine by a laser pulse ([5]; laser pulse, Milburn et al.): ≤ 120 μs
photolysis t1/2 ([5]; photolysis to carbamoylcholine, Milburn et al.): 40 μs
biological activity before photolysis (acetylcholine receptor): biologically inert

COc1ccc([N+](=O)[O-])cc1OC(C)=O [2-methoxy-5-nitrophenyl acetate, reference compound]
lifetime of the photohydrolysis reaction ([5]; triplet quenching measurements, Kuzmic et al.): 0.15 μs
quantum yield ([3]; 1 mM solution in 100 mM phosphate buffer at pH 7.0 with 20% acetonitrile, actinometric standard): 0.22

COc1ccc([N+](=O)[O-])cc1O [2-methoxy-5-nitrophenol]
effect on glycine receptors or their response to glycine [1]: Neither the caged compound nor the 2-methoxy-5-nitrophenol photolysis product affected the glycine receptors or modified their response to glycine
